“And” between values parts separate entries of the source, which are not always exact repeats. Equal values may be shown once. Where a name gives a salt, the structure may show the parent alone. Read-outs that look alike come from different tables or passages of the source. Blank lines part the entries; values can stand above or below the molecule they belong to.
Columns and labels:
A2780 = assay: Antiproliferation assay (Assay 7), A2780; assay type: cell-based; conditions: CellTiter-Glo, several values per example
Experimental: Assessment of the Anti-Proliferative Effect of Compounds in Different Cell Lines
The impact of compounds on the proliferation of different cell lines was assessed using the CellTiter-Glo® Luminescent Cell Viability reagent from Promega (G7573).
In parallel, cells were plated in a reference (day 0) plate for time zero determination.
Rim wells were excluded. The cells were incubated for 72 hours in a humidified incubator at 37° C. The day 0 plate was measured by adding 30 μL/well of CTG solution (CellTiter-Glo® Luminescent Cell Viability reagent, Promega G7573) to time zero wells in the reference plate followed by a 10 minutes incubation and luminescence reading at 0.1 ms. using the PHERAstar FS microplate reader (BMG Labtech).
After 72 hours incubation, the treated plates were measured in the same way as the day 0 plate mentioned above.

MCL-1 = MCL-1 (Homo sapiens (Human), UniProt Q07820, K194A/K197A/R201A); assay: Protein-compound interaction assay (SPR assay, Assay 8); assay type: binding; conditions: immobilized MBP-MCL-1, 25° C., geometric mean
Excerpt: Assay 8 Protein-Compound Interaction Assay (SPR Assay)
The ability of the compounds described in this invention to bind to MCL-1 may be determined using surface plasmon resonance (SPR). This allows for the quantification of binding in terms of the equilibrium dissociation constant (KD [M]), as well as association and dissociation rate constants (kon [1/M 1/s] and koff [1/s], respectively). The measurements may be performed using Biacore® T200 or Biacore® S200 instruments (GE Healthcare).
For SPR measurements, recombinant MCL-1 (amino acids 173-321, N-terminal fused to Maltose Binding Protein (MBP) (SEQ ID 1) purchased from Beryllium (Bedford, Mass., USA)) was immobilized using standard amine coupling (Johnsson B et al, Anal Biochem. 1991 Nov. 1; 198(2):268-77). Briefly, carboxymethylated dextran biosensor chips (Series S Sensor Chip CMS, GE Healthcare) were activated with 1-ethyl-3-(3-dimethylaminopropyl)-carbodiimide hydrochloride (EDC) and N-hydroxysuccinimide (NHS) according to the supplier's instructions. MBP-MCL-1 was diluted in 1×PBS-P+ (GE Healthcare) and injected on the activated chip surface. Subsequently, a solution of 1 M ethanolamine-HCl (GE Healthcare) was injected to block unreacted groups, resulting in approximately 400-2500 response units (RU) of immobilized protein. A reference surface was generated by treatment with NHS-EDC and ethanolamine-HCl. Compounds were dissolved in 100% dimethylsulfoxide (DMSO) to a concentration of 10 mM and subsequently diluted in running buffer (1×PBS-P+ (GE Healthcare) [generated from PBS-P+ Buffer 10× (GE Healthcare): 0.2 M phosphate buffer with 27 mM KCl, 1.37 M NaCl and 0.5% Surfactant P20 (Tween 20).], 1% v/v DMSO). For SPR binding-measurements, serial dilutions of compound (eight dilution steps, typically ranging from 0.2 nM up to 1 μM) were injected over immobilized protein. […] Compounds were injected for 60 s followed by a dissociation time of up to 1000 s.
The double-referenced sensorgrams were fit to a simple reversible Langmuir 1:1 reaction mechanism as implemented in the Biacore® T200 and S200 evaluation software (T200 evaluation software version 2.0 and S200 evaluation software version 1.0, GE Healthcare).

MCL1 protein = MCL1 protein (Homo sapiens (Human), UniProt Q07820); assay: PIxEL: protein-protein interaction in permeabilized cells by ELISA (Assay 5); assay type: cell-based; conditions: permeabilized RKO cells, Biotin-BIM peptide 0.2 μM, serum free; median
Experimental: PI×EL: Protein-Protein Interaction in Permeabilized Cells by ELISA
Most MCL1 protein molecules are localized at the mitochondria outer membrane and sequester pro-apoptotic proteins through binding of their BCL2 homology domain 3 (BH3 domain). MEB buffer (150 mM mannitol, 10 mM HEPES pH 7.5, 50 mM KCl, 20 μM EDTA, 20 μM EGTA, 5 mM potassium succinate, 0.1% protease-free BSA (SIGMA) with low dose digitonin (0.002%) permeabilizes plasma membrane while leaves live mitochondria, where MCL1 maintains its native localization and conformation. Unlike biophysical assays (e.g. TR-FRET) that use truncated recombinant MCL1 protein, this assay uses full length endogenous MCL1 protein at mitochondria outer membrane. It measures the interaction between MCL1 protein and biotinylated BIM BH3 peptide. Compounds can compete with BIM BH3 peptide to bind to MCL1 protein. This serum free assay measures the affinity between MCL1 protein and compound in permeabilized cells, therefore it is not affected by serum binding and cell permeability, and can measure the intrinsic compound affinity.
On day 1, RKO colon cancer cell line cells were plated at 0.8 million cells/ml, 100 μl/well in 96-well flat bottom TC plates (Corning). MCL1 antibody (Santa Cruz sc-12756) were diluted at 200 fold (final concentration 1 μg/ml) in carbonate buffer (Thermo Fisher Scientific, pH 9.6), and 50 μl of diluted antibody was added to each well of high bind ELISA plates (SARSTEDT). Each plate was tapped to make sure liquid covering entire bottom of wells and incubate at 37° C. overnight.
On the second day, MCL1 antibody was washed from ELISA plate. 250 μl Odyssey® Blocking Buffer (PBS) (Li-Cor) was added to each well, incubated at room temperature for at least 1 hour, then washed once with 250 μl 1×PBST. Plates with RKO cells were gently washed once with 100 μl/well PBS, once with 100 μl/well MEB buffer without digitonin, then 100 μl of MEB buffer with 0.002% digitonin was gently added to each well. Compounds were added with HP Tecan compound dispenser in 3-fold dilution series, highest dose 30 μM, 10-dose per compound in quadruplicates. Biotin-BIM peptide (synthesized by 21st Century) was added with HP Tecan compound dispenser at 0.2 μM immediately after the addition of compounds. Plates were rocked for 1 hour at room temperature. Then MEB buffer was aspirated and 50 μl of CHAPS buffer (50 mM Tris-Cl, pH 7.4, 150 mM NaCl, 1% CHAPS, 1 mM EDTA, 1 mM EGTA, cOmplete protease inhibitors (Roche), PhosSTOP (Roche)) was added to each well. Plates were rocked for 1 hour at 4° C., then 45 μl cell lysate from each well were transferred to ELISA plates coated with MCL1 antibody. Plates were incubated overnight in the cold room with rocking.
On the third day, ELISA plates were washed once with 250 μl 1×PBST. Streptavidin-poly-HRP (Thermo Fisher Scientific) was diluted to 20 ng/ml in Odyssey blocking buffer plus 0.05% Triton-100, and 100 μl was added to each well of the ELISA plate. Plates were incubated at room temperature for 1 hour with rocking, then washed with 100 μL 1×PBST for 3 times. Each SuperSignal ELISA Femto Maximum Sensitivity substrate was added to a 50-ml tube and mixed, then 100 μl of mixed substrate was added to each well. Plates were shaken for 1 minute then luminescence was measured by Envision plate reader […]. Signal of each well were normalized by no-compound control and no-cell control. IC50 was calculated using Graphic Pad PRISM software.

MCL-1, sequence (Q07820 whole entry K194A/K197A/R201A, looked up): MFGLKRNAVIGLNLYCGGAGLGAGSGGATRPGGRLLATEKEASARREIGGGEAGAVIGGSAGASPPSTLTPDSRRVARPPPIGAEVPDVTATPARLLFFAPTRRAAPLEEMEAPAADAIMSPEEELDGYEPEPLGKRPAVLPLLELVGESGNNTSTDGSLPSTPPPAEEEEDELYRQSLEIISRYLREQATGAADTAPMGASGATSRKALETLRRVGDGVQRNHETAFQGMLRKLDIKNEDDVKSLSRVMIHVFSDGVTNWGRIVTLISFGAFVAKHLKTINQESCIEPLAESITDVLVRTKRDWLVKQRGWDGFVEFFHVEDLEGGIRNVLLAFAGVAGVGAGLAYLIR
MCL1 protein, sequence (Q07820 whole entry): as the sequence (Q07820 whole entry K194A/K197A/R201A, looked up) above, with A194K, A197K, A201R counted along it

IC50 (A2780; 72 hours, listed as 04, read-out: Antiproli A2780 [M] IC50): 1.66e-05 M
IC50 (A2780; Homo sapiens, A2780, 72 h, read-out: Antiproli A2780 [M] IC50): 1.22e-05 M
SMILES: Cc1c2c(nn1C)CN(C)S(=O)(=O)CCCn1c(C(=O)O)c(CCCOc3cccc4ccccc34)c3ccc(Cl)c-2c31 (racemic) [Example 4, (rac)-4-Chloro-2,3,14-trimethyl-7-{3-[(naphthalen-1-yl)oxy]propyl}-13,13-dioxo-10,11,12,13,14,15-hexahydro-2H-13λ^6-pyrazolo[3′,4′:4,5][1,2,8]thiadiazacycloundecino-[6,7,8-hi]indole-8-carboxylic acid]

Kd (MCL-1): 0.0024 µM
koff (MCL-1; read-out: koff): 0.0079 s⁻¹
kon (MCL-1; read-out: kon): 3.2e+06 M⁻¹ s⁻¹
IC50 (MCL1 protein): 0.57 µM
IC50 (A2780; 72 hours, listed as 05, read-out: Antiproli A2780 [M] IC50): 9.33e-06 M and 1.13e-05 M
SMILES: Cc1c2c(nn1C)CN(C)S(=O)(=O)CCCn1c(C(=O)O)c(CCCOc3cccc4ccccc34)c3ccc(Cl)c-2c31 (single isomer, unassigned; enantiomer 1) [Example 5, 4-Chloro-2,3,14-trimethyl-7-{3-[(naphthalen-1-yl)oxy]propyl}-13,13-dioxo-10,11,12,13,14,15-hexahydro-2H-13λ^6-pyrazolo[3′,4′:4,5][1,2,8]thiadiazacycloundecino[6,7,8-hi]indole-8-carboxylic acid-N-ethylethanamine salt (Enantiomer 1)]

IC50 (A2780; 72 hours, listed as 03, read-out: Antiproli A2780 [M] IC50): 2.11e-05 M
SMILES: Cc1c2c(nn1C)CN(CCN1CCOCC1)S(=O)(=O)CCCn1c(C(=O)O)c(CCCOc3cccc4ccccc34)c3cccc-2c31 (single isomer, unassigned; enantiomer 2) [Example 3, 2,3-Dimethyl-14-[2-(morpholin-4-yl)ethyl]-7-{3-[(naphthalen-1-yl)oxy]propyl}-13,13-dioxo-10,11,12,13,14,15-hexahydro-2H-13λ^6-pyrazolo[3′,4′:4,5][1,2,8]thiadiazacycloundecino-[6,7,8-hi]indole-8-carboxylic acid-N-ethylethanamine salt (Enantiomer 2)]

IC50 (A2780; 72 hours, listed as 06, read-out: Antiproli A2780 [M] IC50): 1.19e-05 M
SMILES: Cc1c2c(nn1C)CN(C)S(=O)(=O)CCCn1c(C(=O)O)c(CCCOc3cccc4ccccc34)c3ccc(Cl)c-2c31 (single isomer, unassigned; enantiomer 2) [Example 6, 4-Chloro-2,3,14-trimethyl-7-{3-[(naphthalen-1-yl)oxy]propyl}-13,13-dioxo-10,11,12,13,14,15-hexahydro-2H-13λ^6-pyrazolo[3′,4′:4,5][1,2,8]thiadiazacycloundecino[6,7,8-hi]indole-8-carboxylic acid-N-ethylethanamine salt (Enantiomer 2)]
